This experiment has as its target CREBBP (Homo sapiens (Human), UniProt Q92793). In words: In vitro enzyme inhibition assay - CREBBP inhibition (AlphaScreen, biotinylated H4-tetraacetyl peptide). The experiment is classed as binding. The conditions noted are these: Table 28; AlphaScreen, H4-tetraacetyl peptide. The method, boiled down: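 Displacement of 20 nM biotinylated tetraacetyl-H4 peptide from 50 nM E. coli-expressed His-CREBBP, measured by AlphaScreen after bead equilibration for 2 h.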

This passage reports IC50 results from patent US10202360B2 (CELGENE QUANTICEL RESEARCH, INC., priority 2016, dated 2019).

pIC50: −log10 of the molar value.

CREBBP, sequence (Q92793 1081-1197): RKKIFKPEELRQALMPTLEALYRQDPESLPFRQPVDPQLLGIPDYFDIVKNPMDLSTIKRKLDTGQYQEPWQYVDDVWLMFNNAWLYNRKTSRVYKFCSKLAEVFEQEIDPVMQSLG

In turn, `Cc1cccc(C#N)c1Oc1nc(NCc2ccccn2)cc(-c2ccc(=O)n(C)c2)n1` [Example 319, 3-Methyl-2-{4-(1-methyl-6-oxo-1,6-dihydro-pyridin-3-yl)-6-[(pyridin-2-ylmethyl)-amino]-pyrimidin-2-yloxy}-benzonitrile] showed a pIC50 greater than 6.30. As for `Cc1cccc(C#N)c1Oc1nc(NCc2ccccc2)cc(-c2ccc(=O)n(C)c2)n1` [Example 320, 2-[4-Benzylamino-6-(1-methyl-6-oxo-1,6-dihydro-pyridin-3-yl)-pyrimidin-2-yloxy]-3-methyl-benzonitrile], the figure is greater than 6.30. Under `CCC[C@H](C)Nc1cc(-c2ccc(=O)n(C)c2)nc(Oc2c(C)cccc2C#N)n1` [Example 321, (S)-3-Methyl-2-[4-(1-methyl-butylamino)-6-(1-methyl-6-oxo-1,6-dihydro-pyridin-3-yl)-pyrimidin-2-yloxy]-benzonitrile] stands greater than 6.30. Under `Cc1cccc(C#N)c1Oc1nc(N[C@@H](C)c2ccccc2)cc(-c2ccc(=O)n(C)c2)n1` [Example 322, (S)-3-Methyl-2-[4-(1-methyl-6-oxo-1,6-dihydro-pyridin-3-yl)-6-(1-phenyl-ethylamino)-pyrimidin-2-yloxy]-benzonitrile] stands greater than 6.30; under `Cc1cccc(C#N)c1Oc1nc(NCc2cccnc2)cc(-c2ccc(=O)n(C)c2)n1` [Example 323, 3-Methyl-2-{4-(1-methyl-6-oxo-1,6-dihydro-pyridin-3-yl)-6-[(pyridin-3-ylmethyl)-amino]-pyrimidin-2-yloxy}-benzonitrile], greater than 6.30; under `COc1nc(NCc2ccccc2)cc(-c2ccc(=O)n(C)c2)n1` [Example 324, 5-(6-Benzylamino-2-methoxy-pyrimidin-4-yl)-1-methyl-1H-pyridin-2-one], greater than 6.30.

Turning to `CCCCNc1cc(-c2ccc(=O)n(C)c2)nc(OC)n1` [Example 325, 5-(6-Butylamino-2-methoxy-pyrimidin-4-yl)-1-methyl-1H-pyridin-2-one], the pIC50 is 5.30 to 6.30.

The compound `CCCC(C)Nc1cc(-c2ccc(=O)n(C)c2)nc(OC)n1` (centres unmarked) [Example 326, 5-[2-Methoxy-6-(1-methyl-butylamino)-pyrimidin-4-yl]-1-methyl-1H-pyridin-2-one] had a pIC50 of 5.30 to 6.30. `COc1nc(NC(C)c2ccccc2)cc(-c2ccc(=O)n(C)c2)n1` (centres unmarked) [Example 327, 5-[2-Methoxy-6-(1-phenyl-ethylamino)-pyrimidin-4-yl]-1-methyl-1H-pyridin-2-one]: the pIC50 is greater than 6.30. Under `COc1nc(NCc2ccccn2)cc(-c2ccc(=O)n(C)c2)n1` [Example 328, 5-{2-Methoxy-6-[(pyridin-2-ylmethyl)-amino]-pyrimidin-4-yl}-1-methyl-1H-pyridin-2-one] stands greater than 6.30. Under `COc1nc(NCCc2ccccc2)cc(-c2ccc(=O)n(C)c2)n1` [Example 329, 5-(2-Methoxy-6-phenethylamino-pyrimidin-4-yl)-1-methyl-1H-pyridin-2-one] stands greater than 6.30; under `COc1nc(NCc2cccnc2)cc(-c2ccc(=O)n(C)c2)n1` [Example 330, 5-{2-Methoxy-6-[(pyridin-3-ylmethyl)-amino]-pyrimidin-4-yl}-1-methyl-1H-pyridin-2-one], greater than 6.30. In the case of `COc1nc(NCC2CCCc3ccccc32)cc(-c2ccc(=O)n(C)c2)n1` (centres unmarked) [Example 331, 5-{2-Methoxy-6-[(1,2,3,4-tetrahydro-naphthalen-1-ylmethyl)-amino]-pyrimidin-4-yl}-1-methyl-1H-pyridin-2-one], the pIC50 is greater than 6.30. Under `Cc1cccc(F)c1Oc1nc(N)cc(-c2ccc(=O)n(C)c2)n1` [Example 332, 5-[6-Amino-2-(2-fluoro-6-methyl-phenoxy)-pyrimidin-4-yl]-1-methyl-1H-pyridin-2-one] stands greater than 6.30; under `Cc1cccc(Cl)c1Oc1nc(N)cc(-c2ccc(=O)n(C)c2)n1` [Example 333, 5-[6-Amino-2-(2-chloro-6-methyl-phenoxy)-pyrimidin-4-yl]-1-methyl-1H-pyridin-2-one], greater than 6.30; under `Cc1cccc(Cl)c1Oc1nc(N)cc(-c2cc(C)c(=O)n(C)c2)n1` [Example 334, 5-[6-Amino-2-(2-chloro-6-methyl-phenoxy)-pyrimidin-4-yl]-1,3-dimethyl-1H-pyridin-2-one], greater than 6.30. As for `Cc1cccc(C)c1Oc1nc(C#N)cc(-c2cc(C)c(=O)n(C)c2)n1` [Example 335, 6-(1,5-dimethyl-6-oxo(3-hydropyridyl))-2-(2,6-dimethylphenoxy)pyrimidine-4-carbonitrile], the figure is greater than 6.30. In turn, `CCCS(=O)(=O)Nc1cc(-c2cc(C)c(=O)n(C)c2)nn1C` [Example 336, Propane-1-sulfonic acid [5-(1,5-dimethyl-6-oxo-1,6-dihydro-pyridin-3-yl)-2-methyl-2H-pyrazol-3-yl]-amide] had a pIC50 of 5.30 to 6.30.

Compound `CCCCS(=O)(=O)Nc1cc(-c2ccc(=O)n(C)c2)nc(Oc2c(F)cccc2CC)n1` [Example 337, N-(2-(2-ethyl-6-fluorophenoxy)-6-(1-methyl-6-oxo-1,6-dihydropyridin-3-yl)pyrimidin-4-yl)butane-1-sulfonamide] showed a pIC50 greater than 6.30. Under `CCc1cccc(F)c1Oc1nc(NS(=O)(=O)C(C)CC)cc(-c2ccc(=O)n(C)c2)n1` (centres unmarked) [Example 338, N-(2-(2-ethyl-6-fluorophenoxy)-6-(1-methyl-6-oxo-1,6-dihydropyridin-3-yl)pyrimidin-4-yl)butane-2-sulfonamide] stands greater than 6.30; under `CCCS(=O)(=O)Nc1cc(-c2ccc(=O)n(C)c2)nc(Oc2c(F)cccc2CC)n1` [Example 339, N-(2-(2-ethyl-6-fluorophenoxy)-6-(1-methyl-6-oxo-1,6-dihydropyridin-3-yl)pyrimidin-4-yl)propane-1-sulfonamide], greater than 6.30; under `CC(C)S(=O)(=O)Nc1cc(-c2ccc(=O)n(C)c2)nc(Oc2c(F)cccc2F)n1` [Example 340, N-(2-(2,6-difluorophenoxy)-6-(1-methyl-6-oxo-1,6-dihydropyridin-3-yl)pyrimidin-4-yl)propane-2-sulfonamide], greater than 6.30.

`CCCS(=O)(=O)Nc1cc(-c2ccc(=O)n(C)c2)nc(Oc2c(F)cccc2F)n1` [Example 341, N-(2-(2,6-difluorophenoxy)-6-(1-methyl-6-oxo-1,6-dihydropyridin-3-yl)pyrimidin-4-yl)propane-1-sulfonamide] had a pIC50 greater than 6.30. Under `CCCCS(=O)(=O)Nc1cc(-c2ccc(=O)n(C)c2)nc(Oc2c(F)cccc2F)n1` [Example 342, N-(2-(2,6-difluorophenoxy)-6-(1-methyl-6-oxo-1,6-dihydropyridin-3-yl)pyrimidin-4-yl)butane-1-sulfonamide] stands greater than 6.30; under `CCCCS(=O)(=O)Nc1cc(-c2ccc(=O)n(C)c2)nc(Oc2c(C)cc(F)cc2F)n1` [Example 343, N-(2-(2,4-difluoro-6-methylphenoxy)-6-(1-methyl-6-oxo-1,6-dihydropyridin-3-yl)pyrimidin-4-yl)butane-1-sulfonamide], greater than 6.30; under `CCCS(=O)(=O)Nc1cc(-c2ccc(=O)n(C)c2)nc(Oc2c(C)cc(F)cc2F)n1` [Example 344, N-(2-(2,4-difluoro-6-methylphenoxy)-6-(1-methyl-6-oxo-1,6-dihydropyridin-3-yl)pyrimidin-4-yl)propane-1-sulfonamide], greater than 6.30.
